Assays:
Php1 [1] = target: T1, Php1 (Porphyromonas gingivalis, UniProt B2RKZ9); design: gene PGN_1525; settings: 200 μM phosphotyrosine, pH 8.0, 37 °C, 1 mM MnCl2
Php1 [2] = target: T1, Php1; design: gene PGN_1525; settings: 50 mM pNPP, pH 8.0, 37 °C, 1 mM MnCl2; also inhibits with phosphotyrosine as substrate
Ltp1 = target: T2, Ltp1 (Porphyromonas gingivalis, UniProt B2RI15); assay: phosphatase inhibition, pNPP hydrolysis; format: biochemical; settings: pNPP as substrate; DMSO vehicle
T2 construct: gene PGN_0491

FPtk1 = target: T3, FPtk1 (Porphyromonas gingivalis, UniProt B2RKZ8); settings: 5 mM ATP, 1 h; Php1 as phosphoacceptor
T3 construct: gene PGN_1524

Php1 [3] = target: T1, Php1; assay: p-nitrophenol release ([…] nm); format: biochemical; design: gene PGN_1525; php1 coding region, GST-tagged (pGEX-4T-1) or His-tagged (pLATE51), E. coli BL21(DE3) Star; 247 residues, 28 kDa; settings: 50 mM pNPP, pH 8.0, 37 °C, 1 mM MnCl2

T1 sequence (B2RKZ9 entry or part of it): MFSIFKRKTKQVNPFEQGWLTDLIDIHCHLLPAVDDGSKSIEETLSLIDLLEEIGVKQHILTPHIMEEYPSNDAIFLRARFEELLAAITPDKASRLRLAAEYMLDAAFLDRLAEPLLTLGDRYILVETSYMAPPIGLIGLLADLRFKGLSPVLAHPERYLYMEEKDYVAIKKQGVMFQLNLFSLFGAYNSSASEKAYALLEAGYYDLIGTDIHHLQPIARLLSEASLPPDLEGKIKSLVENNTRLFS
T2 sequence (B2RI15 entry or part of it): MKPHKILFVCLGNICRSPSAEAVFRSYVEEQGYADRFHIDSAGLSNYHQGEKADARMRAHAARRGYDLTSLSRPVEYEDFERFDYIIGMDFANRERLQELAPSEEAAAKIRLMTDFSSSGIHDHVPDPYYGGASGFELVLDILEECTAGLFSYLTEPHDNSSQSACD
T3 sequence (B2RKZ8 entry or part of it): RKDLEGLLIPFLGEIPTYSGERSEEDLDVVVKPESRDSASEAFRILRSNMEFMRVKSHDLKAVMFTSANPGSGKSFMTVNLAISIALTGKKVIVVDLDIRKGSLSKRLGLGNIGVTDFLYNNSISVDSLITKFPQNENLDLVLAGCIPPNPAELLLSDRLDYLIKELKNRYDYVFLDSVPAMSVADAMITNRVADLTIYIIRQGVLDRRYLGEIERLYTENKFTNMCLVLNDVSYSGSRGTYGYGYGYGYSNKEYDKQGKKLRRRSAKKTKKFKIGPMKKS

N[C@@H](Cc1ccc(OP(=O)(O)O)cc1)C(=O)O [phosphotyrosine]
malachite green phosphate release (Php1 [1]): Php1 was most active against phosphotyrosine

[O]=[V]([OH])([OH])[OH] [Na3VO4, sodium orthovanadate]
inhibition (Php1 [2]): (pNPP) was inhibited by the tyrosine phosphatase inhibitor Na3VO4

Nc1ccc(C(=O)O)cc1 [pABA, para-amino benzoic acid]
% activity relative to no inhibitor (Ltp1): Both H2O2 and pABA inhibited Ltp1 but not Php1

Nc1ncnc2c1ncn2[C@@H]1O[C@H](COP(=O)(O)OP(=O)(O)OP(=O)(O)O)[C@@H](O)[C@H]1O [ATP]
anti-phosphotyrosine immunoblot of Php1 phosphorylation (FPtk1): Tyrosine phosphorylation of Php1 increased after incubation with FPtk1 in the presence of ATP

O=[N+]([O-])c1ccc(OP(=O)(O)O)cc1 [pNPP, p-nitrophenyl phosphate]
p-nitrophenol release (405 nm) (Php1 [3]): Php1 phosphatase activity on p-nitrophenyl phosphate (pNPP)

Source: publication PMC6759763, “Porphyromonas gingivalis Tyrosine Phosphatase Php1 Promotes Community Development and Pathogenicity” (mBio, 2019)
